Values after ≈ are worked out from the molar mass of the structure shown. Like-named read-outs stand apart in the source and are kept apart here.
What was measured:
Assay type in all cases: cell-based
Escherichia coli = assay: MIC by NCCLS broth microdilution, 1100 Japanese clinical isolates 1997-1998; settings: for MIC50 / MIC90: Escherichia coli
Streptococcus pyogenes = assay: as above; settings: Streptococcus pyogenes (n=51)
Proteus mirabilis = assay: as above; settings: Proteus mirabilis (n=30)
Shigella spp. = assay: as above; settings: Shigella spp. (n=34)
E. coli = assay: microbe, parasite or virus in culture; settings: Escherichia coli
P. aeruginosa = assay: MIC by two-fold serial agar dilution, quinolone-resistant strains; settings: Pseudomonas aeruginosa
Klebsiella oxytoca = assay: MIC by NCCLS broth microdilution, 1100 Japanese clinical isolates 1997-1998; settings: Klebsiella oxytoca (n=40)
Streptococcus pneumoniae = assay: MIC by two-fold serial agar dilution, Sensitivity Disk agar-N (Kitasato isolates); settings: for MIC90: read-out: MIC90; for MIC: read-out: MIC Range
Haemophilus influenzae [1] = assay: MIC by broth microdilution (NCCLS), dried MicroScan panels, clinical isolates 1998-1999; settings: for MIC90: Haemophilus influenzae
Hafnia alvei = assay: MIC by agar dilution (NCCLS M7-A4), 288 enteropathogenic isolates, eight quinolones; settings: Hafnia alvei (n = 32)
Haemophilus influenzae [2] = assay: MIC by agar dilution (NCCLS), 411 isolates Buenos Aires 1998-99; settings: Haemophilus influenzae (n = 65)
Salmonella spp. = assay: MIC by agar dilution (NCCLS M7-A4), 288 enteropathogenic isolates, eight quinolones; settings: for MIC: ciprofloxacin MIC ≥[…], read-out: MIC; for % Susceptible / MIC50 / MIC90 / MIC Range: Salmonella spp. (n = 106)
[3] = Escherichia coli ciprofloxacin susceptible (n=37)
[4] = Haemophilus influenzae (300 isolates)
[5] = Salmonella, S. tshiongwe (n = 1)

NC1CCN(c2nc3c(cc2F)c(=O)c(C(=O)O)cn3-c2ccc(F)cc2F)C1 (centres unmarked) [Tosufloxacin, tosufloxacin]
MIC Range (Escherichia coli; [3]): ≤0.008 to 0.25 µg/mL | MIC50 (Escherichia coli; Escherichia coli ciprofloxacin resistant (n=5)): 32 µg/mL (≈ 79.1 µM) | MIC90 (Escherichia coli; Escherichia coli ciprofloxacin resistant (n=5), values marked *: MIC80 value): 32 µg/mL (≈ 79.1 µM) | MIC50 (Escherichia coli; [3]): 0.032 µg/mL (≈ 0.0791 µM) | MIC90 (Escherichia coli; [3]): 0.032 µg/mL (≈ 0.0791 µM) | MIC90 (Streptococcus pyogenes): 1 µg/mL (≈ 2.47 µM) | MIC Range (Streptococcus pyogenes): 0.063 to 1 µg/mL | MIC50 (Streptococcus pyogenes; read-out: MIC50): 0.25 µg/mL (≈ 0.618 µM) | MIC Range (Proteus mirabilis): 0.063 to 16 µg/mL | MIC50 (Proteus mirabilis; read-out: MIC50): 0.25 µg/mL (≈ 0.618 µM) | MIC90 (Proteus mirabilis; read-out: MIC90): 0.5 µg/mL (≈ 1.24 µM) | MIC50 (Shigella spp.): 0.016 µg/mL (≈ 0.0396 µM) | MIC90 (Shigella spp.): 0.016 µg/mL (≈ 0.0396 µM) | MIC Range (Shigella spp.): ≤0.008 to 0.032 µg/mL | MIC50 (E. coli; E. coli (13 strains), quinolone-resistant, read-out: MIC50): 0.063 µg/mL (≈ 0.156 µM) | MIC90 (E. coli; E. coli (13 strains), quinolone-resistant, read-out: MIC90): 0.25 µg/mL (≈ 0.618 µM) | MIC (E. coli; E. coli KU1029, mutant type SP (spontaneous mutant in the DNA gyrase)): 0.063 µg/mL (≈ 0.156 µM) | MIC (E. coli; E. coli KU1030, mutant type SP): 0.031 µg/mL (≈ 0.0767 µM) | MIC (E. coli; E. coli KU1031, mutant type SP): 0.031 µg/mL (≈ 0.0767 µM) | MIC (E. coli; E. coli KU1032, mutant type SP): 0.125 µg/mL (≈ 0.309 µM) | MIC (E. coli; E. coli KU1033, mutant type SP): 0.031 µg/mL (≈ 0.0767 µM) | MIC (E. coli; E. coli KU1034, mutant type GA (DNA gyrase A)): 0.25 µg/mL (≈ 0.618 µM) | MIC (E. coli; E. coli KU1035, mutant type GA (DNA gyrase A)): 0.25 µg/mL (≈ 0.618 µM) | MIC (E. coli; E. coli KU1036, mutant type GB (DNA gyrase B)): 0.031 µg/mL (≈ 0.0767 µM) | MIC (E. coli; E. coli KU1038, mutant type SP): 0.063 µg/mL (≈ 0.156 µM) | MIC (E. coli; E. coli KU1039, mutant type SP): 0.063 µg/mL (≈ 0.156 µM) | MIC (E. coli; E. coli KU1040, mutant type SP): ≤ 0.008 µg/mL | MIC (E. coli; E. coli KU1041, mutant type SP): 0.25 µg/mL (≈ 0.618 µM) | MIC (E. coli; E. coli KU1042, mutant type SP): 0.063 µg/mL (≈ 0.156 µM) | MIC (P. aeruginosa): 1 µg/mL (≈ 2.47 µM) | MIC50 (Klebsiella oxytoca): 0.032 µg/mL (≈ 0.0791 µM) | MIC90 (Klebsiella oxytoca): 4 µg/mL (≈ 9.89 µM) | MIC Range (Klebsiella oxytoca): ≤0.008 to 16 µg/mL | MIC50 (Streptococcus pneumoniae; Ciprofloxacin-susceptible (94)): 0.125 µg/mL (≈ 0.309 µM) | MIC50 (Streptococcus pneumoniae; Erythromycin-resistant (37)): 0.125 µg/mL (≈ 0.309 µM) | MIC50 (Streptococcus pneumoniae; Minocycline-resistant (37)): 0.125 µg/mL (≈ 0.309 µM) | MIC50 (Streptococcus pneumoniae; Streptococcus pneumoniae): 0.125 µg/mL (≈ 0.309 µM) | MIC90 (Streptococcus pneumoniae; Streptococcus pneumoniae, 18 h, Ciprofloxacin-resistant (21), ciprofloxacin MIC ≥8 µg/ml): 8 µg/mL (≈ 19.8 µM) | MIC (Streptococcus pneumoniae; Streptococcus pneumoniae, 18 h, Ciprofloxacin-resistant (21)): 0.25 to 16 µg/mL (≈ 0.618 to 39.6 µM) | MIC (Streptococcus pneumoniae; Streptococcus pneumoniae, 18 h, Ciprofloxacin-susceptible (94)): 0.063 to 0.5 µg/mL (≈ 0.156 to 1.24 µM) | MIC (Streptococcus pneumoniae; Streptococcus pneumoniae, 18 h, Erythromycin-resistant (37)): 0.063 to 4 µg/mL (≈ 0.156 to 9.89 µM) | MIC (Streptococcus pneumoniae; Streptococcus pneumoniae, 18 h, Minocycline-resistant (37)): 0.063 to 4 µg/mL (≈ 0.156 to 9.89 µM) | MIC (Streptococcus pneumoniae; Streptococcus pneumoniae, 18 h, Penicillin-resistant (19)): 0.063 to 0.5 µg/mL (≈ 0.156 to 1.24 µM) | MIC50 (Streptococcus pneumoniae; Streptococcus pneumoniae, Ciprofloxacin-resistant (21), read-out: MIC50): 4 µg/mL (≈ 9.89 µM) | MIC90 (Streptococcus pneumoniae; Streptococcus pneumoniae, Ciprofloxacin-susceptible (94)): 0.25 µg/mL (≈ 0.618 µM) | MIC90 (Streptococcus pneumoniae; Streptococcus pneumoniae, Erythromycin-resistant (37)): 0.5 µg/mL (≈ 1.24 µM) | MIC90 (Streptococcus pneumoniae; Streptococcus pneumoniae, Minocycline-resistant (37)): 0.5 µg/mL (≈ 1.24 µM) | MIC90 (Streptococcus pneumoniae; Streptococcus pneumoniae, Penicillin-resistant (19)): 0.25 µg/mL (≈ 0.618 µM)

CC1COc2c(N3CCN(C)CC3)c(F)cc3c(=O)c(C(=O)O)cn1c23 (centres unmarked) [Ofloxacin, ofloxacin]
MIC50 (Haemophilus influenzae [1]; [4]): ≤ 0.06 µg/mL | MIC Range (Haemophilus influenzae [1]; [4]): ≤0.06 to 0.5 µg/mL | MIC90 (Haemophilus influenzae [1]; [4]): ≤ 0.06 µg/mL | MIC90 (Haemophilus influenzae [1]; β-lactamase negative (234)): ≤ 0.06 µg/mL | MIC90 (Haemophilus influenzae [1]; β-lactamase positive (66)): 0.12 µg/mL (≈ 0.332 µM) | % Susceptible (Hafnia alvei): 100% | MIC50 (Hafnia alvei): 0.03 µg/mL (≈ 0.083 µM) | MIC90 (Hafnia alvei): 0.03 µg/mL (≈ 0.083 µM) | MIC Range (Hafnia alvei): 0.03 µg/mL (≈ 0.083 µM) | MIC90 (Haemophilus influenzae [2]): 0.06 µg/mL (≈ 0.166 µM) | MIC Range (Haemophilus influenzae [2]): 0.008 to 0.25 µg/mL | MIC (Salmonella spp.; S. hadar (n = 2)): 2 µg/mL (≈ 5.53 µM) | MIC (Salmonella spp.; S. newport (n = 1)): 2 µg/mL (≈ 5.53 µM) | % Susceptible (Salmonella spp.): 100% | MIC50 (Salmonella spp.): 0.12 µg/mL (≈ 0.332 µM) | MIC90 (Salmonella spp.): 0.5 µg/mL (≈ 1.38 µM) | MIC Range (Salmonella spp.): 0.06 to 2 µg/mL | MIC (Salmonella spp.; [5]): 2 µg/mL (≈ 5.53 µM)

Cc1c(F)c(N2CCNC(C)C2)cc2c1c(=O)c(C(=O)O)cn2C1CC1 (centres unmarked) [Grepafloxacin, grepafloxacin]
MIC50 (Haemophilus influenzae [1]; [4]): ≤ 0.015 µg/mL | MIC Range (Haemophilus influenzae [1]; [4]): ≤0.015 to 0.12 µg/mL | MIC90 (Haemophilus influenzae [1]; [4]): ≤ 0.015 µg/mL | MIC90 (Haemophilus influenzae [1]; β-lactamase negative (234)): ≤ 0.015 µg/mL | MIC90 (Haemophilus influenzae [1]; β-lactamase positive (66)): 0.03 µg/mL (≈ 0.0835 µM) | % Susceptible (Hafnia alvei): 100% | MIC50 (Hafnia alvei): 0.03 µg/mL (≈ 0.0835 µM) | MIC90 (Hafnia alvei): 0.06 µg/mL (≈ 0.167 µM) | MIC Range (Hafnia alvei): ≤0.015 to 0.06 µg/mL | MIC (Salmonella spp.; S. hadar (n = 2)): 1 µg/mL (≈ 2.78 µM) | MIC (Salmonella spp.; S. newport (n = 1)): 1 µg/mL (≈ 2.78 µM) | MIC (Salmonella spp.; S. virchow (n = 2)): 0.25 µg/mL (≈ 0.696 µM) | % Susceptible (Salmonella spp.): 99% | MIC50 (Salmonella spp.): 0.06 µg/mL (≈ 0.167 µM) | MIC90 (Salmonella spp.): 0.25 µg/mL (≈ 0.696 µM) | MIC Range (Salmonella spp.): 0.03 to 2 µg/mL | MIC (Salmonella spp.; [5]): 2 µg/mL (≈ 5.56 µM)

Reference: EP1561465A2, “Methods of use of fluoroquinolone compounds against bacteria” (LG Life Sciences, Ltd., priority 1999, dated 2001)
